Laboratory results from patent US10591485B2, “Peptide tags for fluorescent labelling of proteins” (UNIVERSITY OF OTTAWA, priority 2015, dated 2020).
“Also recorded” adds a separate entry of the source. Where a SMILES comes first, the peptide text is derived from it.

What was measured:
[1] = Fluorogenic addition reaction kinetics of MBP-dC10 libraries I, II and III with dansyl-dM10 fluorogen 1, plate reader, 28° C.; assay type: biochemical; conditions: for increase in reactivity towards a dimaleimide fluorogen, triple mutants: fluorogen 1, relative to parent dC10, FIG. 10; for reactivity of single mutants A17X (second order rate constant), in words: fluorogen 1, 50 μM equimolar, pH 7.5, 28° C., FIGS. 6 and 7
Method: Library I with point mutants at position A17 is represented in dark grey, library II with double mutants A16-A17 is represented in light grey, and library III with triple mutants A3-A16-A17 is represented in black. The rate constant for parent MBP-dC10 is represented in white. All measurements were performed at least in duplicate. The reactivity of each single mutant of MBP-dC10 was evaluated through their reaction with dansyl-dM10 fluorogen 1 (Caron, K. et al., Org. Biomol. Chem., 9: 185-197, 2011), commonly used for test purposes. Equimolar concentrations of 50 μM of fluorogen 1 and MBP-dC10 variant were used in pH 7.5 buffer HEPES 50 mM, supplemented with 1 mM of TCEP reducing agent to reduce disulfide bonds that could form during protein purification or storage. […] Progress curves of the fluorogenic addition reaction were acquired with a plate reader that allowed us to study a large number of samples at the same time. Since the dansyl fluorophore is sensitive to its environment, the reaction of each MBP-dC10 variant led to an end point of slightly different fluorescence intensity. We used a simple second order kinetic model A+B→C where reactants A and B were used in equimolar concentrations. The product C is the only fluorescent species in the milieu and its appearance can be directly followed by increase of fluorescence. Use of this model implies that the second thiol addition is extremely fast due to its intramolecular character, and that the second order kinetic constant k2 depends exclusively on the first thiol addition. This reasonable approximation allowed us to evaluate very simply the overall dC10 reactivity modulated by the presence of stabilizing residues in the proximity of cysteines C6 and C13. Reactivity of each MBP-dC10 variant was assessed by determining the second order rate constant of the fluorogenic labelling reaction with a dansyl-dimaleimide fluorogenic molecule, referred to as dansyl-dM10 1 (FIG. 11). […] Biomol. Chem. 9: 185-197, 2011). Initial kinetic studies performed on MBP-dC10 histidine mutants S2H, R9H, A7H and S2H-A17H were done at the scale of 500 μL in the established conditions described below, using a Cary Eclipse Fluorimeter (Varian, Inc., Mississauga, Ontario, Canada) at 20° C. […] Libraries I, II and III were assayed using a plate reader: briefly, in a reaction scale of 200 μL, 50 μM MBP-dC10 (or variants) and 50 μM dansyl-dM10 1 were mixed in HEPES 50 mM pH 7.5 buffer in the presence of TCEP 1 mM. Fluorescence increase was followed at 28° C. long after completion of the reaction (2 hours) using the Synergy™ H4 Hybrid Multi-Mode Microplate Reader (BioTek, Winooski, Vt., United States) plate reader at 515 nm, upon excitation at 330 nm of the dansyl fluorophore of 1. Second order reaction constants were determined using the initial slope and the final plateau of each kinetic curve. All reactions were performed in duplicate to quadruplicate. For pH dependent kinetics, MBP-dC10 variants were dialysed into a buffer of desired pH, containing 50 mM of buffering salt (pH 7.50-8.00: HEPES; pH 8.25-8.75: Tris-HCl; pH 9.00: CHES) and 1 mM TCEP, overnight at 4° C., with gentle stirring. Fluorogenic reactions were performed in a plate reader as described above, in duplicate.

[2] = Kinetics of addition of fluorogen 1 to MBP-dC10 histidine mutants, Cary Eclipse fluorimeter, 20° C.; assay type: biochemical; conditions: fluorogen 1, 20° C., FIG. 4
Method: To start, we used fluorogen 1.
Reactivity of each MBP-dC10 variant was assessed by determining the second order rate constant of the fluorogenic labelling reaction with a dansyl-dimaleimide fluorogenic molecule, referred to as dansyl-dM10 1 (FIG. 11). Dansyl-dM10 was synthesized as described (Caron, K. et al., Org. Biomol. Chem. 9: 185-197, 2011). Initial kinetic studies performed on MBP-dC10 histidine mutants S2H, R9H, A7H and S2H-A17H were done at the scale of 500 μL in the established conditions described below, using a Cary Eclipse Fluorimeter (Varian, Inc., Mississauga, Ontario, Canada) at 20° C.

[3] = pH-rate profile of MBP-dC10 mutants with dansyl-dimaleimide fluorogen, pH 7.50-9.00; assay type: physicochemical; conditions: from horizontal displacement of best fit lines of pH-rate profile, FIG. 8
Description: A pH range between 7.50 and 9.00 was explored to determine the dependence of the second order rate constant on pH. Only several mutants from libraries II and III were chosen for this pH study: Triple mutants containing lysine and arginine (black line), triple mutants containing histidine and lysine or arginine (light grey line), double mutants (dark grey line) and parent dC10 (dashed line).
Considering the relative reactivity of the members of all three mutant libraries, additional studies were undertaken to attempt to quantify the effect of positively charged residues on the acidity of the cysteine residue thiol groups. […]
Libraries I, II and III were assayed using a plate reader: briefly, in a reaction scale of 200 μL, 50 μM MBP-dC10 (or variants) and 50 μM dansyl-dM10 1 were mixed in HEPES 50 mM pH 7.5 buffer in the presence of TCEP 1 mM. Fluorescence increase was followed at 28° C. long after completion of the reaction (2 hours) using the Synergy™ H4 Hybrid Multi-Mode Microplate Reader (BioTek, Winooski, Vt., United States) plate reader at 515 nm, upon excitation at 330 nm of the dansyl fluorophore of 1. Second order reaction constants were determined using the initial slope and the final plateau of each kinetic curve. […] Fluorogenic reactions were performed in a plate reader as described above, in duplicate.

[4] = In vitro reactivity of dC10 and dC10* with fluorogen 3; assay type: biochemical; conditions: fluorogen 3, 50 μM equimolar, 28° C., FIG. 13
Method: (§1) Second order rate constant ratios are shown for fluorogen 3 (grey), and fluorogen 4 (black). Ratios were obtained by normalizing all rate constants to the rate constant of parent MBP-dC10. Absolute values of second order rate constants in M^−1min^−1 are shown for each fluorogen and dC10 or dC10*, and were obtained using equimolar concentration of 50 μM of fluorogen and test protein, at 28° C. Results were obtained at least in duplicate.
(§2) To extend the results shown above with fluorogens 1 and 2, we tested whether the labelling of dC10* (dC10-A3KA16RA17K) with other coumarin fluorogens would also show a kinetic advantage compared to dC10.

[5] = In vitro reactivity of dC10 and dC10* with fluorogen 4; assay type: biochemical; conditions: fluorogen 4, 50 μM equimolar, 28° C., FIG. 13
Method: as §1, §2

Q: With “L1SRAECAAREAACREKKARAGGK23 (LSRAECAAREAACREKKARAGGK) [dC10-A3RA16KA17K]” as the compound, how does the “increase in reactivity towards a dimaleimide fluorogen, triple mutants” value (shortened to “increase”) [1] read?
A: The value was ~10 fold.

Q: Which “increase” value [1] does the source give for “L1SRAECAAREAACRERKARAGGK23 (LSRAECAAREAACRERKARAGGK) [dC10-A3RA16RA17K]” here?
A: Its value is ~10 fold.

Q: For “L1SAAECAAHEAACREAAARAGGK23 (LSAAECAAHEAACREAAARAGGK) [dC10-R9H]”, which “reactivity (second order kinetic constant) compared with parent dC10” value (from here on “reactivity … compared with parent dC10”) [2] is on record?
A: Its value is “did not appear to be more reactive than dC10”.

Q: Which “reactivity of single mutants A17X (second order rate constant), in words” value [1] does the source give for “L1SAAECAAREAACREAKARAGGK23 (LSAAECAAREAACREAKARAGGK) [dC10-A17K]” here?
A: Its value is “best dC10 single mutant”.

Q: Which “reactivity … compared with parent dC10” value [2] does the source give for “L1SAAECHAREAACREAAARAGGK23 (LSAAECHAREAACREAAARAGGK) [dC10-A7H]” here?
A: The value was “did not appear to be more reactive than dC10”.

Q: For “L1HAAECAAREAACREAHARAGGK23 (LHAAECAAREAACREAHARAGGK) [dC10-S2HA17H]”, which “reactivity … compared with parent dC10” value [2] is on record?
A: Its value is “more reactive than the parent dC10”.

Q: With “L1SAAECAAREAACREHKARAGGK23 (LSAAECAAREAACREHKARAGGK) [dC10-A16HA17K]” as the compound, how does the “reactivity compared among double mutants A16X-A17K” value ([1]; fluorogen 1, FIG. 10) read?
A: The value was “not as reactive as double mutants A16K-A17K and A16R-A17K”.

Q: For “L1SAAECAAREAACREAHARAGGK23 (LSAAECAAREAACREAHARAGGK) [dC10-A17H]”, which “reactivity of single mutants A17X (second order rate constant), in words” value [1] is on record?
A: Its value is “reacts faster than the parent dC10 peptide tag; also recorded: does not react as fast as the A17K mutant”.

Q: Which “reactivity … compared with parent dC10” value [2] does the source give for “L1HAAECAAREAACREAAARAGGK23 (LHAAECAAREAACREAAARAGGK) [dC10-S2H]” here?
A: The value was “did not appear to be more reactive than dC10”.

Q: Which “pKa lower than that of the parent dC10 sequence” value [3] does the source give for `CC(C)C[C@H](N)C(=O)N[C@@H](CO)C(=O)N[C@@H](CCCCN)C(=O)N[C@@H](C)C(=O)N[C@@H](CCC(=O)O)C(=O)N[C@@H](CS)C(=O)N[C@@H](C)C(=O)N[C@@H](C)C(=O)N[C@@H](CCCNC(=N)N)C(=O)N[C@@H](CCC(=O)O)C(=O)N[C@@H](C)C(=O)N[C@@H](C)C(=O)N[C@@H](CS)C(=O)N[C@@H](CCCNC(=N)N)C(=O)N[C@@H](CCC(=O)O)C(=O)N[C@@H](CCCNC(=N)N)C(=O)N[C@@H](CCCCN)C(=O)N[C@@H](C)C(=O)N[C@@H](CCCNC(=N)N)C(=O)N[C@@H](C)C(=O)NCC(=O)NCC(=O)N[C@@H](CCCCN)C(=O)O` [dC10-A3KA16RA17K] (H-LSKAECAAREAACRERKARAGGK-OH; N-terminus and C-terminus assumed) here?
A: The value was 0.70 units.

Q: With “L1SKAECAAREAACREKKARAGGK23 (LSKAECAAREAACREKKARAGGK) [dC10-A3KA16KA17K]” as the compound, how does the “increase” value [1] read?
A: Its value is ~10 fold.

Q: For “L1SAAECAAREAACREAAARAGGK23 (LSAAECAAREAACREAAARAGGK) [dC10, previously described parent dicysteine alpha-helical peptide tag]”, which “rate enhancement compared to dC10” value [4] is on record?
A: Its value is 4 fold.

Q: What about the “rate enhancement compared to dC10” value [5] of the same compound?
A: Its value is 2 fold.
